The source made the active and inactive calls.
Experiments:
Large T antigen = Large T antigen (Simian virus 40, UniProt P03070); assay type: functional, Betapolyomavirus macacae;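 further: Confirmatory-stage PubChem screen for compounds that inhibit SV40 T antigen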
[1] = target: FAD-linked sulfhydryl oxidase ALR (Homo sapiens, UniProt P55789); assay: inhibitors of human ALR sulfhydryl oxidase, dose response, biochemical, H2O2 detection, luminescence, cherry-pick (AID 493248)
Nonstructural protein 1 = Nonstructural protein 1 (Influenza A virus, UniProt Q194T2); assay type: functional, Influenza A virus (A/California/07/2009(H1N1))
Chain of Nonstructural protein 1 (Q194T2 whole entry): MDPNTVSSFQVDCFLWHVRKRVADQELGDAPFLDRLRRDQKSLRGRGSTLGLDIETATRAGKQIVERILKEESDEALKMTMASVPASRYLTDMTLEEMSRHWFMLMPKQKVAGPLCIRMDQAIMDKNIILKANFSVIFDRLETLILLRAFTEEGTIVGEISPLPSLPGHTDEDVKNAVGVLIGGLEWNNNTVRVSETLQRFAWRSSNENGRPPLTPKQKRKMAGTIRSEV

Genome polyprotein = Genome polyprotein (dengue virus type 2, UniProt P29990); assay: Dengue-2 NS5 methyltransferase inhibitors, primary screen, biochemical, confirmation dose response (AID 588689); assay type: functional
Chain of Genome polyprotein (P29990 2492-3391 limits assumed): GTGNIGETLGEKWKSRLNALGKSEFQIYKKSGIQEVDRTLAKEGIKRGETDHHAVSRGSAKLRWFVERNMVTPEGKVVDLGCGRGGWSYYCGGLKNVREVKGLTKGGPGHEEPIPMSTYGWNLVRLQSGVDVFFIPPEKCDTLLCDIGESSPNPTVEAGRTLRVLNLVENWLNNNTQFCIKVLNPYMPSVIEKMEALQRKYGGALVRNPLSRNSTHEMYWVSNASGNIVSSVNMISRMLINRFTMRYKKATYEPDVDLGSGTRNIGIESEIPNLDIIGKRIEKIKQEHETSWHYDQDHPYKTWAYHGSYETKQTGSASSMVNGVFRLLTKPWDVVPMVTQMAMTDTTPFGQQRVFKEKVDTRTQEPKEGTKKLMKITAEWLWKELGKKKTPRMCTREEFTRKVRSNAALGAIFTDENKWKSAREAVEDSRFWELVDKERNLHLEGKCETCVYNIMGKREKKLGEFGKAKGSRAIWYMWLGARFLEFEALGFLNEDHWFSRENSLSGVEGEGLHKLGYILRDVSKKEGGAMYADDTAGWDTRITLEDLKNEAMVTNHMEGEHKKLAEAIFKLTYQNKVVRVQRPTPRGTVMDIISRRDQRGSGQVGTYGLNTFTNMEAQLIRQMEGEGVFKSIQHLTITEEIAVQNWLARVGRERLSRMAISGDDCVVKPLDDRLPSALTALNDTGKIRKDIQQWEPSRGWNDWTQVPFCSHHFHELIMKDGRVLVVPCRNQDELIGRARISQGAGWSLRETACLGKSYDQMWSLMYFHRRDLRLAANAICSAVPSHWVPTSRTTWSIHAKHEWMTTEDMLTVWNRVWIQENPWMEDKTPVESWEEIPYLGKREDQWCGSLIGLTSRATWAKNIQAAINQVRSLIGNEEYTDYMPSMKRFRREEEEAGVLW

[2] = target: T1, Histone-lysine N-methyltransferase NSD2 (Homo sapiens, UniProt O96028); assay type: biochemical
T1 sequence (O96028 whole entry): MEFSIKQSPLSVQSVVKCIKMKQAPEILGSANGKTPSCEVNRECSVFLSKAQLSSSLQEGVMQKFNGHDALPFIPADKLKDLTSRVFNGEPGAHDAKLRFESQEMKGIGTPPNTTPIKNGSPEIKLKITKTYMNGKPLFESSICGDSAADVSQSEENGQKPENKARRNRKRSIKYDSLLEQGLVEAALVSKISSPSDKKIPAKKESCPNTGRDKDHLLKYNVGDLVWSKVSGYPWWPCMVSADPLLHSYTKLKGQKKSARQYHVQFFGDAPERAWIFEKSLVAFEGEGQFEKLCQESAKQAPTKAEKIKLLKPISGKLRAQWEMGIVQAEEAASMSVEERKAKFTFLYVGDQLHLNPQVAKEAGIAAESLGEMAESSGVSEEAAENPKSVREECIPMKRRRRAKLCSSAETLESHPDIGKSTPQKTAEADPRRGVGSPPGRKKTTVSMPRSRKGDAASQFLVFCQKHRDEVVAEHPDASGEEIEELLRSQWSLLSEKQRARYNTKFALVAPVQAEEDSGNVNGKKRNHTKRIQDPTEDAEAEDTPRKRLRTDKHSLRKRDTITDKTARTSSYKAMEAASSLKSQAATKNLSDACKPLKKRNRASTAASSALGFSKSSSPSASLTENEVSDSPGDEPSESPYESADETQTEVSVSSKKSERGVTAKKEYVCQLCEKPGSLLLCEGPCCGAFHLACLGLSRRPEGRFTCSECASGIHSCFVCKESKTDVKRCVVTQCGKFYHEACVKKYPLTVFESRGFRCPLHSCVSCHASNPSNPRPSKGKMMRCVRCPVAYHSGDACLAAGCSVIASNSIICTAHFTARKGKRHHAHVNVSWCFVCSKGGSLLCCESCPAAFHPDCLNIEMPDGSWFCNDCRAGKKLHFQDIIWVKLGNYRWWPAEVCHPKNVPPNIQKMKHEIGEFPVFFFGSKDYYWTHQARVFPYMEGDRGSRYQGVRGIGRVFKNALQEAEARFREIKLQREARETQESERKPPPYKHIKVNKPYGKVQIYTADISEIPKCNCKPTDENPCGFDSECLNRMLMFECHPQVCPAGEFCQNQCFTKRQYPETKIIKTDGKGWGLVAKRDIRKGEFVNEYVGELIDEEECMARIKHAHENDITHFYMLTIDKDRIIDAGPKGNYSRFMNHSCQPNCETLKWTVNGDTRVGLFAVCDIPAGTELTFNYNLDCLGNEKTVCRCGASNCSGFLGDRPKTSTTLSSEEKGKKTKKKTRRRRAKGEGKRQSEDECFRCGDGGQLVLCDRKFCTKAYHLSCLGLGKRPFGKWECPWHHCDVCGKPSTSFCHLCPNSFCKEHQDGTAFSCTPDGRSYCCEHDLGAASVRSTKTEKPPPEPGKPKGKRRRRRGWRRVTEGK

[3] = Luminescence Cell-Based Dose Confirmation HTS to Identify Inhibitors of Platelet Dense Granule Release. [Related pubchem assays: 1663 (Primary HTS), 1678 (Summary of Project)]; assay type: functional
[4] = target: Luciferin 4-monooxygenase (Photinus pyralis, UniProt P08659); assay: firefly luciferase enzyme inhibitors, dose response, biochemical, luminescence (AID 1891)
Chain of Luciferin 4-monooxygenase (P08659 whole entry): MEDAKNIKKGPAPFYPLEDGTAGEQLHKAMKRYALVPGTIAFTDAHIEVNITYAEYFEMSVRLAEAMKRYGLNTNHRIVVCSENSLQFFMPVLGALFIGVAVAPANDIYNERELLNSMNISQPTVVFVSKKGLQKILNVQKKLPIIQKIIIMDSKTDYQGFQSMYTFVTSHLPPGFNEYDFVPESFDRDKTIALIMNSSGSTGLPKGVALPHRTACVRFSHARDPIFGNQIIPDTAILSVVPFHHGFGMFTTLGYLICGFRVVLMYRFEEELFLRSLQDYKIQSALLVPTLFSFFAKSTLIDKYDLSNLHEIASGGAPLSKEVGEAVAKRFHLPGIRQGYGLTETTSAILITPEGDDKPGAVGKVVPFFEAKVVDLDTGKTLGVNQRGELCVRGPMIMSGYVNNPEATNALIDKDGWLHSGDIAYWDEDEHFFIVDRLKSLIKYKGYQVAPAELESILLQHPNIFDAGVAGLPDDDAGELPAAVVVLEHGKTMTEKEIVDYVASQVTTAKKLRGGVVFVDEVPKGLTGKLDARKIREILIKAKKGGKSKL

[5] = target: T2, Rac GTPase-activating protein 1 (Homo sapiens, UniProt Q9H0H5); assay: MgcRacGAP GTPase-activating activity inhibitors, confirmation, biochemical, ADP Hunter fluorescence, primary and confirmatory (AID 624330); assay type: functional
T2 sequence (Q9H0H5 whole entry): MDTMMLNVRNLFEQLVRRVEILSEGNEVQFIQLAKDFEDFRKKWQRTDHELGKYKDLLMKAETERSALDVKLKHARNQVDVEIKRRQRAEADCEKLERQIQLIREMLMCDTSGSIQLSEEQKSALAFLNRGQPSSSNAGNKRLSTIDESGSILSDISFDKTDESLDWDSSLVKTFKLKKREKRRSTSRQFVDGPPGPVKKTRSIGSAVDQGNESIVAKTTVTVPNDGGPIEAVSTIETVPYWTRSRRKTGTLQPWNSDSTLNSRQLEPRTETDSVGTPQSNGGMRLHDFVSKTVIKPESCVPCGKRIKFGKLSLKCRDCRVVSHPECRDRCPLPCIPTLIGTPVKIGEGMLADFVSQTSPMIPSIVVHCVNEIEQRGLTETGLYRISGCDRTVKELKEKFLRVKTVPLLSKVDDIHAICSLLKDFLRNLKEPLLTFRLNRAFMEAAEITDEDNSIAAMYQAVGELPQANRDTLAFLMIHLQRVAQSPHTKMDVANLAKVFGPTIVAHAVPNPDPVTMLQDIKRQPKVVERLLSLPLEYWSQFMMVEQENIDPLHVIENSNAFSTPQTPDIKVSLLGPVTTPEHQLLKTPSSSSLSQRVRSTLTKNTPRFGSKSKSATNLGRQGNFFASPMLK

[6] = target: T3, Corticotropin-releasing factor receptor 2/Corticotropin-releasing factor-binding protein (Homo sapiens, UniProt P24387+Q13324); assay: activators of CRF receptor 2 with binding protein – uHTS hits, confirmation (AID 602473); assay type: functional; settings: read-out: EC50_Mean
T3 sequence (Q13324 whole entry): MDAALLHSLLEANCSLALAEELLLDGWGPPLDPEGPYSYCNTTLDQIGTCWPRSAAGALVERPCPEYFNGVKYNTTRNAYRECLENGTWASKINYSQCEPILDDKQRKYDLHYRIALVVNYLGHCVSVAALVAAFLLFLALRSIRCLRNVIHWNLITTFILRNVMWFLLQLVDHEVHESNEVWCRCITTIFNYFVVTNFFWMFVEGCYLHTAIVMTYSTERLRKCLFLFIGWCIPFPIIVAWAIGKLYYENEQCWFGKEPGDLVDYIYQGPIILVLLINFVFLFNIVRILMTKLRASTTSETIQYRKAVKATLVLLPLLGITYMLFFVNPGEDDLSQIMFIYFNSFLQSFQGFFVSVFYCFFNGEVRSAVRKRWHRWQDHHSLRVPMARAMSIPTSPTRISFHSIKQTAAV
T3 sequence (P24387 whole entry): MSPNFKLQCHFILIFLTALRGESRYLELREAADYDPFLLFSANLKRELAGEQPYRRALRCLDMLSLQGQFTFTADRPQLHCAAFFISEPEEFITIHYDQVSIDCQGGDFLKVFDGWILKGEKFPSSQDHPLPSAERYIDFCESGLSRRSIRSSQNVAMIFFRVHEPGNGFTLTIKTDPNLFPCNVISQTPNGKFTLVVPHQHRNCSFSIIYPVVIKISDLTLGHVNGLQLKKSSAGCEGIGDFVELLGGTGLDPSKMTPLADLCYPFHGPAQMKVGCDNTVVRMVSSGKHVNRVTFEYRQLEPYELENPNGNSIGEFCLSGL

[7] = target: T3, Corticotropin-releasing factor receptor 2/Corticotropin-releasing factor-binding protein; assay: Dose Response confirmation of uHTS hits for small molecule antagonists of the CRF-binding protein and CRF-R2 receptor complex.; assay type: functional; settings: read-out: IC50_Mean
[8] = HEp-2 cell cytotoxicity, dose response, cytotoxicity control for RSV inhibitor project, HTS (AID 2410); assay type: functional; settings: human respiratory syncytial virus
H9c2 = assay: cells; assay type: functional, cell-based; settings: Rattus norvegicus, H9c2, Myocardium;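 further: confirmatory concentration-response retest of ultra-high-throughput screening hits for modulation of myocardial damage; cell death induced by hydrogen peroxide oxidative stress; compound pretreatment for 60 min then peroxide exposure for 2 h; potency is for protecting the cells against peroxide damage rather than for killing them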
[9] = target: T4, Ubiquitin-conjugating enzyme E2 N (Homo sapiens, UniProt P61088); assay type: functional;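 further: Dose-response confirmation in a TR-FRET assay detecting UBC13-driven polyubiquitin chain formation, inhibition measured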
T4 sequence (P61088 whole entry): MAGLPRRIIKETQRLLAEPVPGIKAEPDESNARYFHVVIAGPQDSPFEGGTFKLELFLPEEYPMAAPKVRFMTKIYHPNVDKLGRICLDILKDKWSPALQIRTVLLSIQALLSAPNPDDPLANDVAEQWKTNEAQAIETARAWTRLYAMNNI

Chain of Large T antigen (P03070 whole entry): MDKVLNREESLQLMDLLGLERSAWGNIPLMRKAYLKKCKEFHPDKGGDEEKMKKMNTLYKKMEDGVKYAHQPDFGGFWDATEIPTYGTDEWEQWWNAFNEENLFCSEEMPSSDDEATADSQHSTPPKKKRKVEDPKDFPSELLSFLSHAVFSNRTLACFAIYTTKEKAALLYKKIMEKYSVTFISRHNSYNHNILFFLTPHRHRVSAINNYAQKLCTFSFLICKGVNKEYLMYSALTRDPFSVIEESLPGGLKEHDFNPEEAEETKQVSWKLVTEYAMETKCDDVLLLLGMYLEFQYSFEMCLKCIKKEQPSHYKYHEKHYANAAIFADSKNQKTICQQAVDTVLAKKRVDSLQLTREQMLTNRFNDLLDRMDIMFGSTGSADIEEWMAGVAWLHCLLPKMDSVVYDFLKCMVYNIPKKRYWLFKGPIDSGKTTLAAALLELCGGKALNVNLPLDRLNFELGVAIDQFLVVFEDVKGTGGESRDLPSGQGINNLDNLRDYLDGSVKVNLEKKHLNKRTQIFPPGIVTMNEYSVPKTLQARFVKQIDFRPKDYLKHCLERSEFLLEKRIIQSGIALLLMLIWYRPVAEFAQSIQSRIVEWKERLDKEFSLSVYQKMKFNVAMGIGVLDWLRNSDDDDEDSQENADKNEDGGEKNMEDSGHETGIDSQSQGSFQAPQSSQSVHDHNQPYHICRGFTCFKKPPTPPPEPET
Chain of FAD-linked sulfhydryl oxidase ALR (P55789 whole entry): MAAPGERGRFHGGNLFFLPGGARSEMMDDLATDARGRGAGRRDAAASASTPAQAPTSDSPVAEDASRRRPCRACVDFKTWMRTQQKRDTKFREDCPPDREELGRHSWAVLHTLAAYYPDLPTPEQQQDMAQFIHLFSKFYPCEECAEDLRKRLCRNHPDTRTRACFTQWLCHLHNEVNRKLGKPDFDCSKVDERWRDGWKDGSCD

With `CCn1cnc2cc(NCc3ccc(N(C)C)cc3)ccc21` as the compound, how does the IC50 (Large T antigen) read?
Its IC50 is 15.8 µM (active).

What about the AC50 [1] of the same compound?
Its AC50 is 5.86 µM (active).

Which IC50 (Large T antigen) does the source give for `CN(C)c1ccc(NC(=O)CN2CCC(O)(c3ccccc3)CC2)cc1` here?
Its IC50 is 7.29 µM (active).

For `COC(=O)c1ccccc1NC(=O)COC(=O)c1ccccc1N=Nc1ccc(N(C)C)cc1`, which IC50 (Nonstructural protein 1) is on record?
The IC50 was 21.4 µM (active).

With `O=C1ON=C(c2ccccc2)/C1=C/c1ccc(OS(=O)(=O)c2ccccc2)cc1` as the compound, how does the IC50 (Large T antigen) read?
Its IC50 is 67.3 µM (active).

And the IC50 (Genome polyprotein)?
Its IC50 is 32.3 µM (active).

With `CCN(CC)CCCN(Cc1cc2cc(OC)ccc2nc1O)C(=O)Nc1ccc(F)cc1` as the compound, how does the AC50 [2] read?
The AC50 was 12.4 µM (active).

For `COCc1cc(C)nc(SCC[N+](C)(C)CC(=O)c2ccc(Br)cc2)c1C#N`, which EC50 [3] is on record?
The EC50 was > 112 µM (not active).

What about the EC50 [4] of the same compound?
Its EC50 is > 112 µM (not active).

For `CCN(CC)CCN1C(=O)C(O)=C(C(=O)c2ccc(C)cc2)C1c1cccnc1` (stereo not drawn), which IC50 (Large T antigen) is on record?
The IC50 was 18.9 µM (active).

Which results are given for `Cc1ccccc1N1C(=O)NC(=O)/C(=C\c2cnn(-c3ccccc3)c2)C1=O`?
IC50 (Large T antigen): 44.9 µM (active); IC50 [5]: 118 µM (active); IC50 (Genome polyprotein): > 100 µM (active)

Which results are given for `COc1ccc2cc(C(=O)N3CCN(Cc4ccc5c(c4)OCO5)CC3)[nH]c2c1`?
EC50 [3]: > 112 µM (not active); EC50 [6]: > 53 µM (inactive); EC50 [4]: > 112 µM (not active); IC50 [7]: > 47.1 µM (inactive)

With `Cc1ccc(NC(=O)Cc2nc(CCl)cs2)cc1` as the compound, how does the EC50 [3] read?
The EC50 was > 112 µM (not active).

What about the EC50 [4] of the same compound?
Its EC50 is > 112 µM (not active).

For `CCn1ncc(CN2CCCC(C(=O)Nc3cccc(-c4cc5ccccc5[nH]4)c3)C2)c1C` (stereo not drawn), which CC50 [8] is on record?
The CC50 was 16.1 µM (active).

And the IC50 (Nonstructural protein 1)?
Its IC50 is > 100 µM (active).

Which results are given for `CCOC(=O)N1CCC(N2C(=O)c3ccccc3C2Nc2cc(OC)c(OC)c(OC)c2)CC1` (stereo not drawn)?
EC50 [3]: 94.3 µM (active); EC50 [4]: > 112 µM (not active); IC50 (H9c2): > 79 µM (inactive)

For `CCN(CC)CCC(=O)c1ccc(F)cc1`, which AC50 [2] is on record?
Its AC50 is > 20 µM (inactive).

With `CC(C)(C)C1=CC(=Nc2ccccc2N)C=C(C(C)(C)C)C1=O` as the compound, how does the IC50 (Nonstructural protein 1) read?
The IC50 was 10.9 µM (active).

With `CSC1=NSC2=NC(=O)/C(=C/c3coc4ccccc4c3=O)C(=N)N12` as the compound, how does the AC50 [2] read?
The AC50 was 16.5 µM (active).

Which IC50 [9] does the source give for `CC1CC(C)(C)CC2(C1)NC(=O)N(CC(=O)Nc1ccc3[nH]c(O)nc3c1)C2=O` (stereo not drawn) here?
The IC50 was > 20 µM (inactive).

Which results are given for `COc1ccccc1NS(=O)(=O)c1ccc(NC(C)=O)cc1`?
EC50 [3]: > 112 µM (not active); EC50 [4]: > 112 µM (not active)

Which IC50 [9] does the source give for `O=C(CCNC(=O)Cn1ccc2ccccc2c1=O)NCCN1CCN(c2ccccc2F)CC1` here?
The IC50 was > 20 µM (inactive).

Which IC50 [9] does the source give for `CCC[C@@H](CN1CCC[C@H]1CN1C(N)=NC[C@H]1CC(C)C)N1C[C@@H]([C@H](C)CC)N(CCCC2CCCC2)C1=N` here?
The IC50 was > 20 µM (inactive).

With `COc1ccc(/C=N/NC(=O)c2nonc2C)cc1` as the compound, how does the EC50 [3] read?
Its EC50 is 2.84 µM (active).

And the EC50 [4]?
Its EC50 is 9.4 µM (active).

For `O=C(Nc1ccccc1C(=O)N/N=C/c1ccncc1)c1ccccc1`, which EC50 [3] is on record?
Its EC50 is 3.06 µM (active).

And the EC50 [4]?
Its EC50 is < 0.088 µM (active).

With `CC(C)N1C[C@@]23C=C[C@@H](O2)C(C(=O)OCc2ccccc2)[C@H]3C1=O` (stereo partly drawn) as the compound, how does the EC50 [3] read?
The EC50 was > 112 µM (not active).

What about the EC50 [4] of the same compound?
The EC50 was > 112 µM (not active).
